Assay results taken from patent US9024027B2, “Derivatives of 1-phenyl-2-pyridinyl alkyl alcohols as phosphodiesterase inhibitors” (Chiesi Farmaceutici S.p.A., priority 2011, dated 2015).

System: LPS-induced TNF-α release in peripheral blood mononuclear cells (PBMCs)
Assay: In vitro determination of PDE4 inhibitory activity in the PBMCs assay (LPS-induced TNF-α release)
Assay type: cell-based
Conditions: PBMC; human PBMCs, LPS 3 ng/ml, 18 hours; read-out: PDE4 inhibition (IC50, 50% inhibition of LPS-induced TNF-α release)
Protocol: The assay, which is based on the known inhibitory activity exerted by PDE4 inhibitors on the lipopolyshaccarides (LPS)-induced tumour necrosis factor-alpha (TNF-α release in peripheral blood mononuclear cells (PBMCs), was performed according to a method previously described (Hatzelmann A et al., J. Pharmacol. Exp. Ther., 2001; 297:267-279; and Draheim R et al., J. Pharmacol. Exp. Ther., 2004; 308:555-563, both of which are incorporated herein by reference in their entireties. Cryopreserved human PBMCs, (100 μl/well) were incubated in 96-well plates (10^5 cells/well), for 30 minutes, in the presence or absence (50 microl) of the test compounds whose concentrations ranged from 10^−12 M to 10^−6 M or from 10^−13 M to 10^−7 M. Subsequently, LPS (3 ng/ml) was added. After 18 hours of incubation at 37° C. in a humidified incubator under an atmosphere of 95% air and 5% CO2, culture medium was collected and TNF-α measured by ELISA.
The results of the tested compounds, representatives of the invention, expressed as mean±95% confidence limits of the molar concentration of the test compound producing 50% inhibition of LPS-induced TNF-α release (IC50) are shown in the following Table: […]

SMILES | IC50 [nM]
Nc1ccc2c(c1)C(=O)N(CC(=O)O[C@@H](Cc1c(Cl)c[n+]([O-])cc1Cl)c1ccc(OC(F)F)c(OCC3CC3)c1)C2 [Compound 9, (S)-4-(2-(2-(6-amino-1-oxoisoindolin-2-yl)acetoxy)-2-(3-(cyclopropylmethoxy)-4-(difluoromethoxy)phenyl)ethyl)-3,5-dichloropyridine 1-oxide] | 1 to 10
CS(=O)(=O)Nc1ccc2c(c1)C(=O)N(CC(=O)O[C@@H](Cc1c(Cl)c[n+]([O-])cc1Cl)c1ccc(OC(F)F)c(OCC3CC3)c1)C2 [Compound 10, (S)-3,5-dichloro-4-(2-(3-(cyclopropylmethoxy)-4-(difluoromethoxy)phenyl)-2-(2-(6-(methylsulfonamido)-1-oxoisoindolin-2-yl)acetoxy)ethyl)pyridine 1-oxide] | 1 to 10
Nc1cccc2c1C(=O)N(CC(=O)O[C@@H](Cc1c(Cl)c[n+]([O-])cc1Cl)c1ccc(OC(F)F)c(OCC3CC3)c1)C2=O [Compound 12, (S)-4-(2-(2-(4-amino-1,3-dioxoisoindolin-2-yl)acetoxy)-2-(3-(cyclopropylmethoxy)-4-(difluoromethoxy)phenyl)ethyl)-3,5-dichloropyridine 1-oxide] | < 1
O=C(Cn1ccc2ccccc21)O[C@@H](Cc1c(Cl)c[n+]([O-])cc1Cl)c1ccc(OC(F)F)c(OCC2CC2)c1 [Compound 14, (S)-4-(2-(2-(1H-indol-1-yl)acetoxy)-2-(3-(cyclopropylmethoxy)-4-(difluoromethoxy)phenyl)ethyl)-3,5-dichloropyridine 1-oxide] | < 1
CSCCC(C(=O)OC(Cc1c(Cl)c[n+]([O-])cc1Cl)c1ccc(OC(F)F)c(OCC2CC2)c1)N1C(=O)c2ccccc2C1=O (stereo not shown) [Compound 15] | < 1
CC(C(=O)OC(Cc1c(Cl)c[n+]([O-])cc1Cl)c1ccc(OC(F)F)c(OCC2CC2)c1)N1C(=O)c2ccccc2C1=O (stereo not shown) [Compound 18] | < 1
O=C(CN1C(=O)c2cc(Cl)c(Cl)cc2C1=O)O[C@@H](Cc1c(Cl)c[n+]([O-])cc1Cl)c1ccc(OC(F)F)c(OCC2CC2)c1 [Compound 19] | < 1
Cn1cnc2c1c(=O)n(CC(=O)O[C@@H](Cc1c(Cl)c[n+]([O-])cc1Cl)c1ccc(OC(F)F)c(OCC3CC3)c1)c(=O)n2C [Compound 20] | < 1
O=C(Cn1cnc2ccccc21)O[C@@H](Cc1c(Cl)c[n+]([O-])cc1Cl)c1ccc(OC(F)F)c(OCC2CC2)c1 [Compound 22] | 1 to 10
O=C(CN1C(=O)C(=O)c2ccccc21)O[C@@H](Cc1c(Cl)c[n+]([O-])cc1Cl)c1ccc(OC(F)F)c(OCC2CC2)c1 [Compound 25] | < 1
O=C(CN1C(=O)C(=O)c2cc([N+](=O)[O-])ccc21)O[C@@H](Cc1c(Cl)c[n+]([O-])cc1Cl)c1ccc(OC(F)F)c(OCC2CC2)c1 [Compound 26] | > 10
O=C(CN1C(=O)c2ccccc2C1=O)O[C@H](Cc1c(Cl)c[n+]([O-])cc1Cl)c1ccc(OC(F)F)c(OCC2CC2)c1 [Compound 29] | > 10
O=C(Cn1c(=O)[nH]c2ccccc2c1=O)O[C@@H](Cc1c(Cl)c[n+]([O-])cc1Cl)c1ccc(OC(F)F)c(OCC2CC2)c1 [Compound 30] | < 1
CC1(C)c2ccccc2S(=O)(=O)N1CC(=O)O[C@@H](Cc1c(Cl)c[n+]([O-])cc1Cl)c1ccc(OC(F)F)c(OCC2CC2)c1 [Compound 35, (S)-3,5-dichloro-4-(2-(3-(cyclopropylmethoxy)-4-(difluoromethoxy)phenyl)-2-(2-(3,3-dimethyl-1,1-dioxidobenzo[d]isothiazol-2(3H)-yl)acetoxy)ethyl)pyridine 1-oxide] | 1 to 10
O=C(Cn1c(=O)c(=O)n(CCN2CCOCC2)c2ccccc21)O[C@@H](Cc1c(Cl)c[n+]([O-])cc1Cl)c1ccc(OC(F)F)c(OCC2CC2)c1 [Compound 37, (S)-3,5-dichloro-4-(2-(3-(cyclopropylmethoxy)-4-(difluoromethoxy)phenyl)-2-(2-(4-(2-morpholinoethyl)-2,3-dioxo-3,4-dihydroquinoxalin-1(2H)-yl)acetoxy)ethyl)pyridine 1-oxide] | < 1
O=C(Cn1c(=O)n(CCN2CCOCC2)c(=O)c2ccccc21)O[C@@H](Cc1c(Cl)c[n+]([O-])cc1Cl)c1ccc(OC(F)F)c(OCC2CC2)c1 [Compound 38] | < 1

SMILES | IC50 [nM]
O=C(Cn1c(=O)c2ccccc2n(CCN2CCOCC2)c1=O)O[C@@H](Cc1c(Cl)c[n+]([O-])cc1Cl)c1ccc(OC(F)F)c(OCC2CC2)c1 [Compound 39] | < 1
O=C(Cn1c(=O)c2ccccc2c(=O)n1CCN1CCOCC1)O[C@@H](Cc1c(Cl)c[n+]([O-])cc1Cl)c1ccc(OC(F)F)c(OCC2CC2)c1 [Compound 40] | 1 to 10
O=C(Cn1ccc2cc(O)ccc21)O[C@@H](Cc1c(Cl)c[n+]([O-])cc1Cl)c1ccc(OC(F)F)c(OCC2CC2)c1 [Compound 42, (S)-3,5-dichloro-4-(2-(3-(cyclopropylmethoxy)-4-(difluoromethoxy)phenyl)-2-(2-(5-hydroxy-1H-indol-1-yl)acetoxy)ethyl)pyridine 1-oxide] | < 1
COc1ccc2c(ccn2CC(=O)O[C@@H](Cc2c(Cl)c[n+]([O-])cc2Cl)c2ccc(OC(F)F)c(OCC3CC3)c2)c1 [Compound 45, (S)-3,5-dichloro-4-(2-(3-(cyclopropylmethoxy)-4-(difluoromethoxy)phenyl)-2-(2-(5-methoxy-1H-indol-1-yl)acetoxy)ethyl)pyridine 1-oxide] | < 1
COc1cc2ccn(CC(=O)O[C@@H](Cc3c(Cl)c[n+]([O-])cc3Cl)c3ccc(OC(F)F)c(OCC4CC4)c3)c2cc1OC [Compound 54] | 1 to 10
COc1ccc2c(c1)C(=O)C(=O)N2CC(=O)O[C@@H](Cc1c(Cl)c[n+]([O-])cc1Cl)c1ccc(OC(F)F)c(OCC2CC2)c1 [Compound 57, (S)-3,5-dichloro-4-(2-(3-(cyclopropylmethoxy)-4-(difluoromethoxy)phenyl)-2-(2-(5-methoxy-2,3-dioxoindolin-1-yl)acetoxy)ethyl)-pyridine 1-oxide] | < 1
O=C(Cn1ccc2cccnc21)O[C@@H](Cc1c(Cl)c[n+]([O-])cc1Cl)c1ccc(OC(F)F)c(OCC2CC2)c1 [Compound 60] | 1 to 10
O=C(Cn1ccc2cnccc21)O[C@@H](Cc1c(Cl)c[n+]([O-])cc1Cl)c1ccc(OC(F)F)c(OCC2CC2)c1 [Compound 61] | 1 to 10
COc1ccc2c(c1)N(CC(=O)O[C@@H](Cc1c(Cl)c[n+]([O-])cc1Cl)c1ccc(OC(F)F)c(OCC3CC3)c1)C(=O)C2=O [Compound 64, (S)-3,5-dichloro-4-(2-(3-(cyclopropylmethoxy)-4-(difluoromethoxy)phenyl)-2-(2-(6-methoxy-2,3-dioxoindolin-1-yl)acetoxy)ethyl)-pyridine 1-oxide] | < 1
COc1cccc2c1C(=O)N(CC(=O)O[C@@H](Cc1c(Cl)c[n+]([O-])cc1Cl)c1ccc(OC(F)F)c(OCC3CC3)c1)C2=O [Compound 68, (S)-3,5-dichloro-4-(2-(3-(cyclopropylmethoxy)-4-(difluoromethoxy)phenyl)-2-(2-(4-methoxy-1,3-dioxoisoindolin-2-yl)acetoxy)-ethyl)pyridine 1-oxide] | < 1
CS(=O)(=O)Nc1ccc2c(ccn2CC(=O)O[C@@H](Cc2c(Cl)c[n+]([O-])cc2Cl)c2ccc(OC(F)F)c(OCC3CC3)c2)c1 [Compound 76, (S)-3,5-dichloro-4-(2-(3-(cyclopropylmethoxy)-4-(difluoromethoxy)phenyl)-2-(2-(5-(methylsulfonamido)-1H-indol-1-yl)acetoxy)-ethyl)pyridine 1-oxide] | < 1
CS(=O)(=O)Nc1cccc2c1ccn2CC(=O)O[C@@H](Cc1c(Cl)c[n+]([O-])cc1Cl)c1ccc(OC(F)F)c(OCC2CC2)c1 [Compound 84, (S)-3,5-dichloro-4-(2-(3-(cyclopropylmethoxy)-4-(difluoromethoxy)phenyl)-2-(2-(4-(methylsulfonamido)-1H-indol-1-yl)acetoxy)-ethyl)pyridine 1-oxide] | < 1
CS(=O)(=O)Nc1cn(CC(=O)O[C@@H](Cc2c(Cl)c[n+]([O-])cc2Cl)c2ccc(OC(F)F)c(OCC3CC3)c2)c2ccccc12 [Compound 93, (S)-3,5-dichloro-4-(2-(3-(cyclopropylmethoxy)-4-(difluoromethoxy)phenyl)-2-(2-(3-(methylsulfonamido)-1H-indol-1-yl)acetoxy)ethyl)pyridine 1-oxide] | 1 to 10
CS(=O)(=O)Nc1ccc2c(c1)C(=O)C(=O)N2CC(=O)O[C@@H](Cc1c(Cl)c[n+]([O-])cc1Cl)c1ccc(OC(F)F)c(OCC2CC2)c1 [Compound 99, (S)-3,5-dichloro-4-(2-(3-(cyclopropylmethoxy)-4-(difluoromethoxy)phenyl)-2-(2-(5-(methylsulfonamido)-2,3-dioxoindolin-1-yl)acetoxy)ethyl)pyridine 1-oxide] | 1 to 10
O=C(CN1C(=O)c2ccccc2S1(=O)=O)O[C@@H](Cc1c(Cl)c[n+]([O-])cc1Cl)c1ccc(OC(F)F)c(OCC2CC2)c1 [Compound 102, (S)-3,5-dichloro-4-(2-(3-(cyclopropylmethoxy)-4-(difluoromethoxy)phenyl)-2-(2-(1,1-dioxido-3-oxobenzo[d]isothiazol-2(3H)-yl)acetoxy)ethyl)pyridine 1-oxide] | < 1
